Laboratory results as given in patent US8309685B2 (Celgene Avilomics Research, Inc., priority 2007, dated 2012).
pIC50: −log10 of the molar value. Read-outs that look alike come from different tables or passages of the source.

Legend:
[1] = molecular target: T1, A156T mutant of the HCV NS3/4A 1b protease enzyme (Hepatitis C virus genotype 1b, UniProt P26663, A1182T); assay: HCV Protease FRET Assay (IC50), A156T mutant; format: biochemical
T1 construct: 10× stocks of NS3/4A protease enzyme from Bioenza (Mountain View, Calif.); purchased Bioenza (Mountain View, Calif.)

HCV NS3/4A protease = HCV NS3/4A protease (UniProt Q9WMX2); assay: Method B: HCV Protease Assay using FRET Methodology; parameters: species or system Hepatitis C virus
From the text: Method B: HCV Protease Assay using FRET Methodology
A quantitative, fluorescence resonance energy transfer (FRET)-based methodology was employed to identify HCV NS3/4A protease inhibitors. The assay employed a synthetic FRET peptide, derived from the HCV NS5A/5B cleavage site, with the HCV protease to evaluate the activity of compounds against the protease by monitoring the cleavage activity of the complex. A synthetic peptide which encompasses the NS5A-5B junction (NH2-EDVVCCSMSYK-COOH) was labeled with Dabcyl and Edans at N- and C-termini, respectively (Invitrogen, Carlsbad, Calif.). Fluorescence measurement was used to estimate the IC50 value of the test compound. […] Upon cleavage of the FRET peptide by HCV NS3/4A proteinase complex (100 ng/mL), the fluorescence is recovered and can be continuously monitored at excitation/emission=340/490 nm.

[2] = molecular target: T2, HCV NS3/4A wild type (genotype 1b) (Hepatitis C virus genotype 1b, UniProt P26663); assay: Mass spectrometric analysis (MALDI-TOF) of covalent modification, HCV wild type; format: binding; details: 10-fold excess of compound to protein, 3 hrs
T2 construct: mass spectroscopic analysis of HCV NS3/4A wild-type protease domain; purchased Bioenza Calif
Experimental: Mass spectrometric analysis of HCV wild type or HCV variant C159S in the presence of test compound was performed. 100 pmols of HCV wild type (Bioenza Calif.) was incubated with compound for 1 hr and 3 hrs at 10-fold access of […] to protein. 1 ul aliquots of the samples (total volume of 4.24 ul) were diluted with 10 ul of 0.1% TFA prior to micro C4 ZipTipping directly onto the MALDI target using Sinapinic acid as the desorption matrix (10 mg/ml in 01% TFA:Acetonitrile 50:50). Analyses were performed on a Shimadzu Biotech Axima TOF^2 (Shimadzu Instruments) matrix-assisted-laser desorption/ionization Time-of-Flight (MALDI-TOF) mass spectrometer. The same procedure was carried out on 100 pmols of HCV C159S mutant of HCV protease for 3 hrs at 10-fold excess of (I-3) to protein.
As depicted in FIGS. 2, 3, 4, and 5, mass spectrometric analysis of HCV wild type or HCV mutants in the presence of test compound (I-3) was performed. […] 1 ul aliquots of the samples were diluted with 10 ul of 0.1% TFA prior to micro C4 ZipTipping directly onto the MALDI target using Sinapinic acid as the desorption matrix (10 mg/ml in 0.1% TFA:Acetonitrile 50:50).
Mass spectrometric analysis of HCV wild type (genotype 1b) in the presence of test compounds I-73 and I-75 was performed using the following protocol: HCV NS3/4A wild type (wt) was incubated for 1 hr at a 10× fold access of test compound to protein. 2 ul aliquots of the samples were diluted with 10 ul of 0.1% TFA prior to micro C4 ZipTipping directly onto the MALDI target using Sinapinic acid as the desorption matrix (10 mg/ml in 0.1% TFA:Acetonitrile 50:50). For intact protein mass measurement the instrument was set in Linear mode using a pulsed extraction setting of 24,500 and apomyoglobin as the standard to calibrate the instrument.
Mass spectrometric analysis of HCV NS3/4A genotypes 1a, 1b, 2a, and 3a in the presence of test compound I-96 was performed using the following protocol: HCV NS3/4A was incubated for 3 hr at a 10× fold access of test compound to protein. […]

[3] = read-out: Inhibition, HCV A156T, A156T enzyme, FRET assay

SMILES | pIC50 ([1]; read-out: Comparative IC50 Values, A156T, biochemical assay) | pIC50 [1, 3] | pIC50 (HCV NS3/4A protease; Enzyme/Assay: Biochemical; read-out: Inhibition, Biochemical) | pIC50 (HCV NS3/4A protease; read-out: Inhibition, Biochemical; Enzyme/Assay: Biochemical) | Covalent modification of HCV wild type by mass spectrometry [2]
C=CC(=O)NC[C@H](NC(=O)OC(C)(C)C)C(=O)N1C[C@H](Oc2cc(-c3ccccc3)nc3cc(OC)ccc23)C[C@H]1C(=O)N[C@]1(C(=O)NS(=O)(=O)c2ccccc2)C[C@H]1C=C [Compound I-3, N-[(1,1-dimethylethoxy)carbonyl]-3-[(2-propenoyl)amino]-L-alanyl-(4R)-4-[(7-methoxy-2-phenyl-4-quinolinyl)oxy]-L-prolyl-1-amino-2-ethenyl-N-(phenylsulfonyl)-(1R,2S)-cyclopropanecarboxamide] | 7.74 | 7.00 to 8.00 | 7.00 to 8.00 |  | 
C=C[C@@H]1C[C@]1(NC(=O)[C@@H]1C[C@@H](Oc2cc(-c3ccccc3)nc3cc(OC)ccc23)CN1C(=O)[C@H](CNC(=O)CCl)NC(=O)OC(C)(C)C)C(=O)NS(=O)(=O)c1ccccc1 [Compound I-7, N-[(1,1-dimethylethoxy)carbonyl]-3-[(chloroacetyl)amino]-L-alanyl-(4R)-4-[(7-methoxy-2-phenyl-4-quinolinyl)oxy]-L-prolyl-1-amino-2-ethenyl-N-(phenylsulfonyl)-(1R,2S)-cyclopropanecarboxamide] |  | 7.00 to 8.00 |  | 7.00 to 8.00 | 
C=CC(=O)NCC(=O)N1C[C@H](Oc2cc(-c3ccccc3)nc3cc(OC)ccc23)C[C@H]1C(=O)N[C@]1(C(=O)NS(=O)(=O)c2ccccc2)C[C@H]1C=C [Compound I-27, (2S,4R)-1-(2-acrylamidoacetyl)-4-(7-methoxy-2-phenylquinolin-4-yloxy)-N-((1R,2S)-1-(phenylsulfonylcarbamoyl)-2-vinylcyclopropyl)pyrrolidine-2-carboxamide] |  | 7.00 to 8.00 |  |  | near complete covalent modification
